# According to publication PMC4752462 (PLoS ONE, 2016):
# Columns and labels:
# human recombinant CYP3A4 = target: T1, human recombinant CYP3A4 (Homo sapiens, UniProt P08684); assay: CYP3A4 inhibition, Vivid CYP450 blue screening kit with baculosomes; type: biochemical
# T1 construct: purchased Life Technologies P2858; host or cells: baculosomes (baculovirus-infected insect cell microsomes)
# Description: CYP3A4 inhibition assay was carried out by using Vivid® CYP450 Screening Kit from Life Technologies as recommended by the manufacturer (# P2858, Carlsbad, CA). This assay allows rapid measurement of interactions between drugs of interest and CYP enzymes based on their capability to inhibit the production of a fluorescent signal in reactions using CYP BACULOSOMES® Plus Reagents and specific Vivid® Substrates. Briefly, the assay was conducted in a 96-well assay plate. […] The final concentrations of 2.5, 5, 7.5, 10, 25, 50, 75, and 100 μM were achieved by diluting the stocks in 1X Vivid® CYP reaction buffer. […] For ethanol only experiment, 2.5, 5, […], 20, 30, and 50 mM final concentrations were used. The final concentration of acetonitrile in each reaction was 0.01% in 100 μl final reaction volume. The fluorescence was immediately measured using a microplate reader (Cytation™ 5 Cell Imaging Multi-Mode Reader, BioTek, VT) at the 415/460 nm excitation and emission wavelengths.
# The concentrations of all the drugs were quantified using Ab Sciex Analyst® software. Microsomal kinetic data were analyzed using Michaelis-Menten and exponential decay equations. CYP3A4 inhibition data were evaluated by fitting the values to dose-response inhibition and calculated IC50 values were reported. All graphs were plotted and two-tailed t-tests were performed wherever appropriate using GraphPad Prism 5.01 (GraphPad, San Diego, CA). Significant differences between more than two groups analyzed with one-way ANOVA followed by Dunnett’s multiple comparison tests using IBM SPSS […] version 20. A p value <0.05 was considered significant compared to respective controls. The original data and/or statistical analyses for Michaelis-Menten Kinetics, drug metabolism and half-life determination, inhibition studies, and ligand docking are provided in the supporting information (S1 file).
# CYP3A4 = settings: cited from earlier work
# T1 sequence (P08684 whole entry): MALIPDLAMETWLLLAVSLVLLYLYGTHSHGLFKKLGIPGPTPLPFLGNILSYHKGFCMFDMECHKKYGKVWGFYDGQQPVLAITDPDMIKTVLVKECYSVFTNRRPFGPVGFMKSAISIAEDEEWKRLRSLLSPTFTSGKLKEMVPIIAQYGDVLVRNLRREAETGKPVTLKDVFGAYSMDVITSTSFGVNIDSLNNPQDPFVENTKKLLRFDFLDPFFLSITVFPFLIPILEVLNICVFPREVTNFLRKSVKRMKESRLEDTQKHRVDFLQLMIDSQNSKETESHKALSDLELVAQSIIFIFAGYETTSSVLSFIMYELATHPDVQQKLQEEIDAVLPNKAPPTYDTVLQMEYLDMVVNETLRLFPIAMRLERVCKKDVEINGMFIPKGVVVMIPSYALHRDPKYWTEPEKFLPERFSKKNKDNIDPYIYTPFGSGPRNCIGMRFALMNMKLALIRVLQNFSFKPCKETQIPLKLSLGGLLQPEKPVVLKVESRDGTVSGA
smiles,measurement,setting,value
"CCO [EtOH, ethanol]",CYP3A4 activity (Fig 5 inset),human recombinant CYP3A4; EtOH 2.5 mM alone,102.61
same,CYP3A4 activity (Fig 5 inset),human recombinant CYP3A4; EtOH 5 mM alone,98.7735
same,CYP3A4 activity (Fig 5 inset),human recombinant CYP3A4; EtOH 10 mM alone,93.5305
same,CYP3A4 activity (Fig 5 inset),human recombinant CYP3A4; EtOH 20 mM alone,91.7899
same,CYP3A4 activity (Fig 5 inset),human recombinant CYP3A4; EtOH 30 mM alone,86.4404
same,CYP3A4 activity (Fig 5 inset),human recombinant CYP3A4; EtOH 50 mM alone,79.5554
same,inhibition of CYP3A4,human recombinant CYP3A4; ethanol only at 20 mM,~ 10%
CC(C)CN(C[C@@H](O)[C@H](Cc1ccccc1)NC(=O)O[C@H]1CCOC1)S(=O)(=O)c1ccc(N)cc1 [amprenavir],effect of ethanol exposure on the IC50 value,CYP3A4,significantly decreased
Cc1c(O)cccc1C(=O)N[C@@H](CSc1ccccc1)[C@H](O)CN1C[C@H]2CCCC[C@H]2C[C@H]1C(=O)NC(C)(C)C [nelfinavir],effect of ethanol exposure on the IC50 value,CYP3A4,significantly decreased
